Data as given in patent US7981907B2 (dated 2011).

| melting point [°C] | SMILES |
| --- | --- |
| 155 to 160 | CC(=O)c1ccc(-c2ccccc2C[S+]([O-])CC(N)=O)cc1 (stereo not drawn) |
| 153 | Cc1ccc(C[S+]([O-])CC(N)=O)cc1-c1ccccc1 (stereo not drawn) |
| 34 to 43 | Cc1noc(C)c1-c1cccc(C[S+]([O-])CC(N)=O)c1 (stereo not drawn) |
